Laboratory results from patent US20220096485A1, “FUNCTIONALIZED PYRANO[2,3-D]PYRIMIDIN-7-ONE DERIVATIVES AND METHODS FOR THEIR PREPARATION AND USE” (The Texas A&M University System, priority 2016, published 2022).

Molecular target: Abelson kinase 2 (ABL2) (Homo sapiens, UniProt P42684)
Experiment: Eurofins Arg (ABL2) Human TK Kinase Binding Assay

Abelson kinase 2 (ABL2), sequence (P42684 whole entry): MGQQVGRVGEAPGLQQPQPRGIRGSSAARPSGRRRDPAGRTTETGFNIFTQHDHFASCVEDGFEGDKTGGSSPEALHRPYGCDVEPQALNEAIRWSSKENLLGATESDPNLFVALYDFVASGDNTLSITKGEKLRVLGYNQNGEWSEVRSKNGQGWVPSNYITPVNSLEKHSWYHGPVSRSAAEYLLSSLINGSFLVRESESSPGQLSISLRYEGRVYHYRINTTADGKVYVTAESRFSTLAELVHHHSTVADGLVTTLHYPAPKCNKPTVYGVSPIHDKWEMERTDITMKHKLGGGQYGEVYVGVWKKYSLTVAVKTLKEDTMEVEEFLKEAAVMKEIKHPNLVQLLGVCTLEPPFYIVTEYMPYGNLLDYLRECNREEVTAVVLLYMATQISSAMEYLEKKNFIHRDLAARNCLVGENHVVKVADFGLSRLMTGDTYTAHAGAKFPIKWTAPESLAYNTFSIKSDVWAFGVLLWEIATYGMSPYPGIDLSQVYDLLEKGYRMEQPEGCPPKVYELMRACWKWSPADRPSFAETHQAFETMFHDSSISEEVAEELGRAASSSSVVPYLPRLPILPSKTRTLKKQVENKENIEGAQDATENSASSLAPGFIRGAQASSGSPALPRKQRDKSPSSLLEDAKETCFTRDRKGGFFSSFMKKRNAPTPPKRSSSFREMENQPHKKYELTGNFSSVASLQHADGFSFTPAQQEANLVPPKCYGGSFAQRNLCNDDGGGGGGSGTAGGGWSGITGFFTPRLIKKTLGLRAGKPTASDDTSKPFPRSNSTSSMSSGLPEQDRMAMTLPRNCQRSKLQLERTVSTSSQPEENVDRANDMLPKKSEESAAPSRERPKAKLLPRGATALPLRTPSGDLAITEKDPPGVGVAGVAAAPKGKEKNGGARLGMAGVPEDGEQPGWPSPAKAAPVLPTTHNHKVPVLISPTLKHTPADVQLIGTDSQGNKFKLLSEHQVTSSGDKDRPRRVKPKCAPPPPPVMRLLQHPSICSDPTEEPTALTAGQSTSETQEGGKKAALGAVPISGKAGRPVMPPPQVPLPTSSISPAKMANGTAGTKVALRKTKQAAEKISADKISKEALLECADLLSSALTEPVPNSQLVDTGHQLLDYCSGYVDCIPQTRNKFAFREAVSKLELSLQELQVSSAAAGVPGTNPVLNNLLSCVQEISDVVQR

Kd	SMILES
3.9 nM	Cc1cc(Nc2ncc3cc(-c4c(Cl)cccc4Cl)c(=O)oc3n2)ccc1F [Compound 12a, 2-(4-Fluoro-3-methylphenylamino)-6-(2,6-dichlorophenyl)-7H-pyrano[2,3-d]pyrimidin-7-one]
3.8 nM	CSc1cccc(Nc2ncc3cc(-c4c(Cl)cccc4Cl)c(=O)oc3n2)c1 [Compound 12b, 2-(3-(Methylthio)phenylamino)-6-(2,6-dichlorophenyl)-7H-pyrano[2,3-d]pyrimidin-7-one]
1.1 nM	Nc1cccc(Nc2ncc3cc(-c4c(Cl)cccc4Cl)c(=O)oc3n2)c1 [Compound 12c, 2-(3-Aminophenylamino)-6-(2,6-dichlorophenyl)-7H-pyrano[2,3-d]pyrimidin-7-one]
4.5 nM	N#Cc1cccc(Nc2ncc3cc(-c4c(Cl)cccc4Cl)c(=O)oc3n2)c1 [Compound 12d, 3-(6-(2,6-Dichlorophenyl)-7-oxo-7H-pyrano[2,3-d]pyrimidin-2-ylamino)benzonitrile]
1.3 nM	COc1cccc(Nc2ncc3cc(-c4c(Cl)cccc4Cl)c(=O)oc3n2)c1 [Compound 12e, 6-(2,6-Dichlorophenyl)-2-(3-methoxyphenylamino)-7H-pyrano[2,3-d]pyrimidin-7-one]
6.9 nM	CN(C)c1ccc(Nc2ncc3cc(-c4c(Cl)cccc4Cl)c(=O)oc3n2)cc1 [Compound 12f, 6-(2,6-Dichlorophenyl)-2-(4-(dimethylamino)phenylamino)-7H-pyrano[2,3-d]pyrimidine-7-one]
1.1 nM	CC(=O)Nc1cccc(Nc2ncc3cc(-c4c(Cl)cccc4Cl)c(=O)oc3n2)c1 [Compound 12g, N-(3-(6-(2,6-Dichlorophenyl)-7-oxo-7H-pyrano[2,3-d]pyrimidine-2-ylamino)-phenyl)-acetamide]
1.3 nM	Cc1cccc(C)c1-c1cc2cnc(Nc3cccc(N)c3)nc2oc1=O [Compound 19a, 2-(3-Aminophenylamino)-6-(2,6-dimethylphenyl)-7H-pyrano[2,3-d]pyrimidine-7-one]
1.3 nM	CC(=O)Nc1cccc(Nc2ncc3cc(-c4c(C)cccc4C)c(=O)oc3n2)c1 [Compound 19b, N-(3-(6-(2,6-Dimethylphenyl)-7-oxo-7H-pyrano[2,3-d]pyrimidine-2-ylamino)phenyl)-acetamide]
130 nM	Nc1cccc(Nc2ncc3cc(-c4ccccc4)c(=O)oc3n2)c1 [Compound 19c, 2-(3-Aminophenylamino)-6-phenyl-7H-pyrano[2,3-d]pyrimidin-7-one]
